# Measured values published in patent US11208386B2, “Inhibitors of protein arginine deiminases (PADs) and methods of preparation and use thereof” (University of Massachusetts, priority 2016, dated 2021).
# Key:
# [1] = cited from earlier work
# [2] = molecular target: T1, PAD3 (Homo sapiens, UniProt Q9ULW8); assay: Inactivation kinetics, PAD3; assay type: biochemical; conditions: for kinact/KI: a: single kobs determined; for Fold PAD3 Selectivity: kinact/KI relative to least inhibited isozyme (1.0)
# T1 construct: made in house
# T1 sequence (Q9ULW8 1-664): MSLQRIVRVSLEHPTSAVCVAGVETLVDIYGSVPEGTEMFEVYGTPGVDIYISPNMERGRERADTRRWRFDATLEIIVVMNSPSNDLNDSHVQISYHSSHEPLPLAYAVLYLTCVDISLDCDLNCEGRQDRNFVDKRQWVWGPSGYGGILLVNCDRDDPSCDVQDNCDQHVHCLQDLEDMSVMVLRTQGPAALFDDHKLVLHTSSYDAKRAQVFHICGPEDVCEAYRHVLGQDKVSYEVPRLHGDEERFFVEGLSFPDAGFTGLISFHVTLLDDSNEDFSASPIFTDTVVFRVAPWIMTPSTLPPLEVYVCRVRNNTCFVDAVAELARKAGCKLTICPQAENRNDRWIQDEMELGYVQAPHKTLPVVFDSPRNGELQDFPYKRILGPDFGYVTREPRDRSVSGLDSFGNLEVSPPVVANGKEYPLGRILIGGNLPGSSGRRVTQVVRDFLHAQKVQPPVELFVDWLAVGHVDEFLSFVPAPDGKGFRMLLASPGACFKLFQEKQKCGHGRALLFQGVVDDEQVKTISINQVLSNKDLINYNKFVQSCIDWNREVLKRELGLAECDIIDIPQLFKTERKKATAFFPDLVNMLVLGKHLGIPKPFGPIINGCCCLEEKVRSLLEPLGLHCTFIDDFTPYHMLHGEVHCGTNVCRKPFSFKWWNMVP
# Method in brief: (§1)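 PAD1, 2 or 4 (2.0 μM) or PAD3 (5.0 μM) preincubated at 37 °C with varying inhibitor in 50 mM HEPES, 10 mM CaCl2, 2 mM DTT, pH 7.6. Timed aliquots assayed 15 min with 10 mM BAEE (BAA for PAD3); citrulline quantified by COLDER.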
# [3] = molecular target: T2, PAD2 (Homo sapiens, UniProt Q9Y2J8); assay: Inactivation kinetics, PAD2; assay type: biochemical; conditions: for kinact/KI: a: single kobs determined, b: from a linear fit, other footnotes: from kinact and KI; for Fold PAD2 Selectivity: kinact/KI relative to least inhibited isozyme (1.0)
# T2 construct: made in house
# T2 sequence (Q9Y2J8 whole entry): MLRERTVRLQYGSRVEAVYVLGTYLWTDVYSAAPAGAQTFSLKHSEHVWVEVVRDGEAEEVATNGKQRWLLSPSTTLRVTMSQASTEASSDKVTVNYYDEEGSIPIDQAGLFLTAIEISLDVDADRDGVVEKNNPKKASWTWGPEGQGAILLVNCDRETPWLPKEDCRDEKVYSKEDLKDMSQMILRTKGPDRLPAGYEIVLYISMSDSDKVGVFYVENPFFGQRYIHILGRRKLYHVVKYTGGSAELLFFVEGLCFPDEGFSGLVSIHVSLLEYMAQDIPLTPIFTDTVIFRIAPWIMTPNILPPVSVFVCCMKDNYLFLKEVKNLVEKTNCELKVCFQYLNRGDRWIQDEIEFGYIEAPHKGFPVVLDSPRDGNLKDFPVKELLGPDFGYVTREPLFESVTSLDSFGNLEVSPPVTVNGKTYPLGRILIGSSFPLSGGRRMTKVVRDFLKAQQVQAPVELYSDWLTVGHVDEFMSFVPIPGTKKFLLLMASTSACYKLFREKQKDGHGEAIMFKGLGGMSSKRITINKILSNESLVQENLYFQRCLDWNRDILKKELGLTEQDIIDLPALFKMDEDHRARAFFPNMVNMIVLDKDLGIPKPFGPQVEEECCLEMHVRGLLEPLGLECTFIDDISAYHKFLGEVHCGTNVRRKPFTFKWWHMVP
# Method in brief: as §1
# [4] = molecular target: T3, PAD1 (Homo sapiens, UniProt Q9ULC6); assay: Inactivation kinetics, PAD1; assay type: biochemical; conditions: for kinact/KI: a: single kobs determined, b: from a linear fit; for Fold PAD1 Selectivity: kinact/KI relative to least inhibited isozyme (1.0)
# T3 construct: made in house
# T3 sequence (Q9ULC6 1-663): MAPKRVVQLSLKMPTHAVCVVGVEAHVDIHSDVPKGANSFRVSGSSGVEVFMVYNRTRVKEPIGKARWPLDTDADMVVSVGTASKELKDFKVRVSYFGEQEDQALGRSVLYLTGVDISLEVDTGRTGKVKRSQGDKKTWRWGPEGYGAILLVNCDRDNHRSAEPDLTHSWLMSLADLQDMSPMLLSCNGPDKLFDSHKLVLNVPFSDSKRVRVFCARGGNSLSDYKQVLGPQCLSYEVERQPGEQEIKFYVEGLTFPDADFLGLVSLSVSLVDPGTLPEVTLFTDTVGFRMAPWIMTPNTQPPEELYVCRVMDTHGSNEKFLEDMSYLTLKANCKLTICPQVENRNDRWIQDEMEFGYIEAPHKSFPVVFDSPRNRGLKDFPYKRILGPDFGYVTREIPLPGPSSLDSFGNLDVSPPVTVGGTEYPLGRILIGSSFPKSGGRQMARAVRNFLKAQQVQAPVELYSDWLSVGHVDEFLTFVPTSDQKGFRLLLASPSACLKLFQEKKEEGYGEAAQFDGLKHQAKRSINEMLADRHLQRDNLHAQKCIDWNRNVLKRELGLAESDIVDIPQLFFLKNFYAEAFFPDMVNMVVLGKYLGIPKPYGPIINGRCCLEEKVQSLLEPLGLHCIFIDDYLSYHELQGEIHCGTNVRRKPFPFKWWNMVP
# Method in brief: as §1
# [5] = molecular target: T4, PAD4 (Homo sapiens, UniProt Q9UM07); assay: Inactivation kinetics, PAD4; assay type: biochemical; conditions: for kinact/KI: a: single kobs determined, b: from a linear fit; for Fold PAD4 Selectivity: kinact/KI relative to least inhibited isozyme (1.0)
# T4 construct: made in house
# T4 sequence (Q9UM07 whole entry): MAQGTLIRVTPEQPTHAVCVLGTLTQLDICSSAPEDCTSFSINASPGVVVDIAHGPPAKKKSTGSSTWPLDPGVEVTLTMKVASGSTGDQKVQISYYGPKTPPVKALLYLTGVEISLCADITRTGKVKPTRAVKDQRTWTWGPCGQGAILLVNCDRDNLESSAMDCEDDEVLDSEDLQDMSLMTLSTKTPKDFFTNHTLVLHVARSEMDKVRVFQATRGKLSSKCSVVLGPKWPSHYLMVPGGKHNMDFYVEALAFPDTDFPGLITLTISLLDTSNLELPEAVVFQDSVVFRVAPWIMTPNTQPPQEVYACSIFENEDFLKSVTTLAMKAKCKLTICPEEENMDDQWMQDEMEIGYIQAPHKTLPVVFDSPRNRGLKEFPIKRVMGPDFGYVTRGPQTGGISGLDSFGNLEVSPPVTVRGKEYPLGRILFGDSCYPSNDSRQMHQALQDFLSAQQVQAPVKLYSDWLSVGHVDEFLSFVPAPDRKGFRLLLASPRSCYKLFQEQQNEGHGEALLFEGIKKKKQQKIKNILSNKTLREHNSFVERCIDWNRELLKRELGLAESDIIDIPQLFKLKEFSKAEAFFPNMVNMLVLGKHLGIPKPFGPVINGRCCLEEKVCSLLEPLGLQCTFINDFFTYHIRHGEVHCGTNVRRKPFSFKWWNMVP
# Method in brief: as §1
Compound,"efficacy in animal models ([1]; rheumatoid arthritis, lupus, ulcerative colitis, spinal cord injury, breast cancer, atherosclerosis)",kinact/KI [2] [M⁻¹ s⁻¹],Fold PAD3 Selectivity [2] [fold],kinact/KI [3] [M⁻¹ s⁻¹],Fold PAD2 Selectivity [3] [fold],kinact/KI [4] [M⁻¹ s⁻¹],Fold PAD1 Selectivity [4] [fold],kinact/KI [5] [M⁻¹ s⁻¹],Fold PAD4 Selectivity [5] [fold],"Ki ([3]; PAD2, table footnote) [µM]","kinact ([3]; PAD2, table footnote) [s⁻¹]",efficacy in an RA model ([1]; in vivo)
N=C(CCl)NCCC[C@H](NC(=O)c1ccccc1)C(N)=O [Cl-amidine],demonstrated efficacy,–,–,–,–,–,–,–,–,–,–,–
COc1cccc2c1nc([C@H](CCCNC(=N)CCl)NC(=O)c1cccc3c1C(=O)N(C1CC1)C3)n2C [Compound 8t],–,158,1.1,958,6.7,674,4.7,143,1.0,–,–,–
"CCN1Cc2cccc(C(=O)N[C@@H](CCCNC(=N)CF)c3nc4c(OC)cccc4n3CC)c2C1=O [Compound 8u, N1-(2-ethyl-3-oxoisoindoline)benzoyl-N5-(2-fluoro-1-iminoethyl)-1-(4-methoxy-1-ethyl-benzo[d]imidazol-2-yl)-L-ornithine]",–,23.3,2.0,933,40,652,28,46.7,1.0,23.4,0.0218,–
"CCN1Cc2cccc(C(=O)N[C@@H](CCCNC(=N)CCl)c3nc4c(OC)cccc4n3CC)c2C1=O [Compound 8v, N1-(2-ethyl-3-oxoisoindoline)benzoyl-N5-(2-chloro-1-iminoethyl)-1-(4-methoxy-1-ethyl-benzo[d]imidazol-2-yl)-L-ornithine]",–,99.5,3.4,776,27,907,31,29.2,1.0,–,–,–
"CCN1Cc2cccc(C(=O)N[C@@H](CCCNC(=N)CF)c3nc4cc(OC)ccc4[nH]3)c2C1=O [Compound 8w, N1-(2-ethyl-3-oxoisoindoline)benzol-N5-(2-fluoro-1-iminoethyl)-1-(5-methoxy-1H-benzo[d]imidazol-2-yl)-L-ornithine]",–,127,3.6,226,6.3,156,4.4,35.7,1.0,–,–,–
"CCN1Cc2cccc(C(=O)N[C@@H](CCCNC(=N)CCl)c3nc4cc(OC)ccc4[nH]3)c2C1=O [Compound 8x, N1-(2-ethyl-3-oxoisoindoline)benzoyl-N5-(2-chloro-1-iminoethyl)-1-(5-methoxy-1H-benzo[d]imidazol-2-yl)-L-ornithine]",–,267,4.1,590,9.1,504,7.8,64.8,1.0,–,–,–
"CCN1Cc2cccc(C(=O)N[C@@H](CCCNC(=N)CF)c3nc4cc(OC)ccc4n3CC)c2C1=O [Compound 8y, N1-(2-ethyl-3-oxoisoindoline)benzoyl-N5-(2-fluoro-1-iminoethyl)-1-(5-methoxy-1-ethyl-benzo[d]imidazol-2-yl)-L-ornithine]",–,24.7,2.7,630,70,253,28,9,1.0,–,–,–
"CCN1Cc2cccc(C(=O)N[C@@H](CCCNC(=N)CCl)c3nc4cc(OC)ccc4n3CC)c2C1=O [Compound 8z, N1-(2-ethyl-3-oxoisoindoline)benzoyl-N5-(2-chloro-1-iminoethyl)-1-(5-methoxy-1-ethyl-benzo[d]imidazol-2-yl)-L-ornithine]",–,198,8.4,637,27,501,21,23.5,1.0,–,–,–
"Cn1c([C@H](CCCNC(=N)CF)NC(=O)c2ccccc2C(=O)OC(C)(C)C)nc2ccccc21 [Compound 9a, N1-(2-tert-butylcarboxy)benzoyl-N5-(2-fluoro-1-iminoethyl)-1-(1-methyl-benzo[d]imidazol-2-yl)-L-ornithine]",–,20,1.0,40,2.0,41.2,2.1,40.5,2.0,–,–,–
"Cn1c([C@H](CCCNC(=N)CCl)NC(=O)c2ccccc2C(=O)OC(C)(C)C)nc2ccccc21 [Compound 9b, N1-(2-tert-butylcarboxy)benzol-N5-(2-chloro-1-iminoethyl)-1-(1-methyl-benzo[d]imidazol-2-yl)-L-ornithine]",–,86.7,1.6,55.2,1.0,325,5.9,64.2,1.2,–,–,–
"CCn1c([C@H](CCCNC(=N)CF)NC(=O)c2ccccc2C(=O)OC(C)(C)C)nc2ccccc21 [Compound 9c, N1-(2-tert-butylcarboxy)benzoyl-N5-(2-fluoro-1-iminoethyl)-1-(1-ethyl-benzo[d]imidazol-2-yl)-L-ornithine]",–,51.7,7.0,102,14,15.8,2.2,7.33,1.0,–,–,–
"CCn1c([C@H](CCCNC(=N)CCl)NC(=O)c2ccccc2C(=O)OC(C)(C)C)nc2ccccc21 [Compound 9d, N1-(2-tert-butylcarboxy)benzoyl-N5-(2-chloro-1-iminoethyl)-1-(1-ethyl-benzo[d]imidazol-2-yl)-L-ornithine]",–,78.3,3.6,152,7.0,200,9.3,21.7,1.0,–,–,–
"CC(C)n1c([C@H](CCCNC(=N)CF)NC(=O)c2ccccc2C(=O)OC(C)(C)C)nc2ccccc21 [Compound 9e, N1-(2-tert-butylcarboxy)benzoyl-N5-(2-fluoro-1-iminoethyl)-1-(1-isopropyl-benzo[d]imidazol-2-yl)-L-omithine]",–,35,13,50.2,19,23.7,8.9,2.67,1.0,–,–,–
"CC(C)n1c([C@H](CCCNC(=N)CCl)NC(=O)c2ccccc2C(=O)OC(C)(C)C)nc2ccccc21 [Compound 9f, N1-(2-tert-butylcarboxy)benzoyl-N5-(2-chloro-1-iminoethyl)-1-(1-isopropyl-benzo[d]imidazol-2-yl)-L-omithine]",–,80,7.1,119,11,56,4.9,11.3,1.0,–,–,–
GSK199,–,–,–,–,–,–,–,–,–,–,–,shows efficacy
